Experimental data: patent US20060069132A1, “Azolecarboxamide herbicides” (priority 2004, published 2006)

Assays:
[1] = test system: small flower umbrella sedge; assay: Test B flooded paddy test; format: in vivo, Cyperus difformis; conditions: 1000 g ai/ha, visual rating, scale 0 to 100 (0 no effect, 100 complete control), 13 to 15 days
How it was run: (§1)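 Postemergence plants were sprayed with formulated test chemicals at 2 to 18 cm height (1- to 4-leaf stage); paddy species were grown to the 2-leaf stage. After 13 to 15 days in a greenhouse, injury was rated visually against untreated controls on a 0–100 scale (0 = no effect, 100 = complete control).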

rice [2] = assay: Test B flooded paddy test; format: in vivo, Oryza sativa; conditions: 1000 g ai/ha, visual rating, scale 0 to 100 (0 no effect, 100 complete control), 13 to 15 days
How it was run: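 Read-out: visual comparison with controls, scored 0 to 100, where 100 means complete control and 0 no effect. Formulated chemicals were applied postemergence to plants 2–18 cm tall (1- to 4-leaf), or to flooded-paddy plants at the 2-leaf stage, then held 13 to 15 days under glass.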

giant foxtail = assay: Test B pre-/postemergence herbicide test; format: in vivo, Setaria faberi
How it was run: (§2)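 Visual rating, 0 (no effect) to 100 (complete control), versus untreated controls after 13–15 d in greenhouse. Pre- and postemergence applications (postemergence plants 2–18 cm, 1–4 leaves); flooded paddy arm at 2-leaf stage. Compounds in non-phytotoxic solvent plus surfactant.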

pigweed = assay: Test B pre-/postemergence herbicide test; format: in vivo, Amaranthus retroflexus; conditions: for Pigweed plant response rating: postemergence, visual rating
How it was run: as §2

blackgrass = assay: Test B postemergence herbicide test; format: in vivo, Alopecurus myosuroides; conditions: scale 0 (no effect) to 100 (complete control); for Blackgrass plant response rating: postemergence, visual rating
How it was run: as §1

barnyardgrass [3] = assay: Test B flooded paddy test; format: in vivo, Echinochloa crus-galli; conditions: 1000 g ai/ha, visual rating, scale 0 to 100 (0 no effect, 100 complete control), 13 to 15 days
How it was run: as §1

lambsquarters = assay: Test B pre-/postemergence herbicide test; format: in vivo, Chenopodium album; conditions: for Lambsquarters plant response rating: postemergence, visual rating
How it was run: as §2

rice [4] = assay: Test B pre-/postemergence herbicide test; format: in vivo, Oryza sativa; conditions: preemergence
How it was run: as §2

ducksalad = assay: Test B flooded paddy test; format: in vivo, Heteranthera limosa; conditions: 1000 g ai/ha, visual rating, scale 0 to 100 (0 no effect, 100 complete control), 13 to 15 days
How it was run: as §1

corn = assay: Test B pre-/postemergence herbicide test; format: in vivo, Zea mays
How it was run: as §2

cocklebur = assay: Test B pre-/postemergence herbicide test; format: in vivo, Xanthium strumarium
How it was run: (§3)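 Seeds were planted and treated preemergence with compounds formulated in a non-phytotoxic solvent mixture containing surfactant, while plants at the 1- to 4-leaf stage (2 to 18 cm) received postemergence sprays. Flooded paddy plants were grown to the 2-leaf stage. After 13 to 15 days in a greenhouse, injury was visually rated 0–100 against untreated controls.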

velvetleaf = assay: Test B pre-/postemergence herbicide test; format: in vivo, Abutilon theophrasti; conditions: for Velvetleaf plant response rating: postemergence, visual rating
How it was run: as §2

wheat = assay: Test B postemergence herbicide test; format: in vivo, Triticum aestivum; parameters: key to Wheat plant response rating: 0 = no effect, 100 = complete control; conditions: scale 0 (no effect) to 100 (complete control); for Wheat plant response rating: postemergence, visual rating
How it was run: as §1

large crabgrass = assay: Test B pre-/postemergence herbicide test; format: in vivo, Digitaria sanguinalis
How it was run: as §2

barnyardgrass [5] = assay: Test B pre-/postemergence herbicide test; format: in vivo, Echinochloa crus-galli
How it was run: as §3

wild oat = assay: Test B postemergence herbicide test; format: in vivo, Avena fatua; conditions: scale 0 (no effect) to 100 (complete control); for Oat, Wild plant response rating: postemergence, visual rating
How it was run: as §1

Surinam grass = assay: Test B pre-/postemergence herbicide test; format: in vivo, Urochloa decumbens; conditions: for Surinam Grass plant response rating: postemergence, visual rating
How it was run: as §2

morningglory = assay: Test B pre-/postemergence herbicide test; format: in vivo, Ipomoea coccinea; conditions: for Morningglory plant response rating: postemergence, visual rating
How it was run: as §3

[6] = Postemergence, 500 g ai/ha, visual rating after 13 to 15 days, scale 0 (no effect) to 100 (complete control)
[7] = Preemergence, 500 g ai/ha, scale 0 to 100
[8] = postemergence, 125 g ai/ha, visual rating, scale 0 (no effect) to 100 (complete control)
[9] = preemergence, 125 g ai/ha, 0 to 100 scale, 0 is no effect, 100 is complete control
[10] = 125 g ai/ha, scale 0 (no effect) to 100 (complete control)
[11] = Postemergence, 500 g ai/ha, visual rating after 13 to 15 days
[12] = 125 g ai/ha, 0 to 100 scale, 0 is no effect, 100 is complete control
[13] = 500 g ai/ha, visual rating 0-100, 0 no effect, 100 complete control, preemergence
[14] = postemergence, 500 g ai/ha, visual rating, scale 0 (no effect) to 100 (complete control)
[15] = 500 g ai/ha, scale 0 (no effect) to 100 (complete control)

SMILES: CCn1nc(C(C)(C)C)cc1C(=O)Nc1cc(C(=O)OC(C)C)c(OC)cc1F [Compound 77]
- Sedge, Umbrella plant response rating [1]: 80
- Rice plant response rating (rice [2]): 70
- Plant response rating, Foxtail, Giant (giant foxtail; [6]): 40
- Foxtail, Giant plant response rating (giant foxtail; [7]): 60
- Foxtail, Giant plant response rating (giant foxtail; [8]): 0
- Plant response rating, Foxtail, Giant (giant foxtail; [9]): 0
- Plant response rating, Pigweed (pigweed; [6]): 90
- Pigweed plant response rating (pigweed; [10]): 70
- Plant response rating, Pigweed (pigweed; [9]): 90
- Plant response rating, Blackgrass (blackgrass; [11]): 30
- Blackgrass plant response rating (blackgrass; 125 g ai/ha): 20
- Barnyardgrass plant response rating (barnyardgrass [3]): 40
- Plant response rating, Lambsquarters (lambsquarters; [6]): 90
- Lambsquarters plant response rating (lambsquarters; [10]): 50
- Plant response rating, Lambsquarters (lambsquarters; [9]): 60
- Plant response rating, Rice (rice [4]; [12]): 0
- Ducksalad plant response rating (ducksalad): 40
- Plant response rating, Corn (corn; [6]): 10
- Corn plant response rating (corn; [7]): 40
- Corn plant response rating (corn; [8]): 10
- Plant response rating, Corn (corn; [9]): 0
- Plant response rating, Cocklebur (cocklebur; [6]): 0
- Cocklebur plant response rating (cocklebur; [7]): 0
- Cocklebur plant response rating (cocklebur; [8]): 0
- Plant response rating, Cocklebur (cocklebur; [9]): 0
- Plant response rating, Velvetleaf (velvetleaf; [6]): 30
- Velvetleaf plant response rating (velvetleaf; [10]): 20
- Plant response rating, Velvetleaf (velvetleaf; [9]): 0
- Plant response rating, Wheat (wheat; [11]): 20
- Wheat plant response rating (wheat; 125 g ai/ha): 10
- Plant response rating, Crabgrass, Large (large crabgrass; [6]): 40
- Crabgrass, Large plant response rating (large crabgrass; [7]): 80
- Crabgrass, Large plant response rating (large crabgrass; [8]): 0
- Plant response rating, Crabgrass, Large (large crabgrass; [9]): 0
- Plant response rating, Barnyardgrass (barnyardgrass [5]; [6]): 0
- Barnyardgrass plant response rating (barnyardgrass [5]; [7]): 70
- Barnyardgrass plant response rating (barnyardgrass [5]; [8]): 0
- Plant response rating, Barnyardgrass (barnyardgrass [5]; [9]): 0
- Plant response rating, Oat, Wild (wild oat; [11]): 40
- Oat, Wild plant response rating (wild oat; 125 g ai/ha): 40
- Plant response rating, Surinam Grass (Surinam grass; [6]): 20
- Surinam Grass plant response rating (Surinam grass; [10]): 0
- Plant response rating, Surinam Grass (Surinam grass; [9]): 0
- Plant response rating, Morningglory (morningglory; [6]): 70
- Morningglory plant response rating (morningglory; [10]): 0
- Plant response rating, Morningglory (morningglory; [9]): 0

SMILES: C=CCN(C)C(=O)c1cccc(NC(=O)c2cc(C(C)(C)C)nn2CC)n1 [Compound 163]
- Sedge, Umbrella plant response rating [1]: 70
- Rice plant response rating (rice [2]): 60
- Plant response rating, Foxtail, Giant (giant foxtail; [13]): 80
- Foxtail, Giant plant response rating (giant foxtail; [8]): 0
- Foxtail, Giant plant response rating (giant foxtail; [14]): 40
- Plant response rating, Foxtail, Giant (giant foxtail; [9]): 20
- Plant response rating, Pigweed (pigweed; [13]): 100
- Pigweed plant response rating (pigweed; [10]): 60
- Pigweed plant response rating (pigweed; [15]): 80
- Plant response rating, Pigweed (pigweed; [9]): 90
- Blackgrass plant response rating (blackgrass; 125 g ai/ha): 10
- Blackgrass plant response rating (blackgrass; 500 g ai/ha): 50
- Barnyardgrass plant response rating (barnyardgrass [3]): 70
- Plant response rating, Lambsquarters (lambsquarters; [13]): 100
- Lambsquarters plant response rating (lambsquarters; [10]): 50
- Lambsquarters plant response rating (lambsquarters; [15]): 80
- Plant response rating, Lambsquarters (lambsquarters; [9]): 80
- Plant response rating, Rice (rice [4]; 500 g ai/ha, visual rating 0-100, 0 no effect, 100 complete control): 80
- Plant response rating, Rice (rice [4]; [12]): 80
- Ducksalad plant response rating (ducksalad): 80
- Plant response rating, Corn (corn; [13]): 40
- Corn plant response rating (corn; [8]): 0
- Corn plant response rating (corn; [14]): 0
- Plant response rating, Corn (corn; [9]): 0
- Plant response rating, Cocklebur (cocklebur; [13]): 70
- Cocklebur plant response rating (cocklebur; [8]): 10
- Cocklebur plant response rating (cocklebur; [14]): 60
- Plant response rating, Cocklebur (cocklebur; [9]): 70
- Plant response rating, Velvetleaf (velvetleaf; [13]): 90
- Velvetleaf plant response rating (velvetleaf; [10]): 40
- Velvetleaf plant response rating (velvetleaf; [15]): 80
- Plant response rating, Velvetleaf (velvetleaf; [9]): 70
- Wheat plant response rating (wheat; 500 g ai/ha): 10
- Plant response rating, Crabgrass, Large (large crabgrass; [13]): 90
- Crabgrass, Large plant response rating (large crabgrass; [8]): 20
- Crabgrass, Large plant response rating (large crabgrass; [14]): 40
- Plant response rating, Crabgrass, Large (large crabgrass; [9]): 60
- Plant response rating, Barnyardgrass (barnyardgrass [5]; [13]): 90
- Barnyardgrass plant response rating (barnyardgrass [5]; [8]): 0
- Barnyardgrass plant response rating (barnyardgrass [5]; [14]): 0
- Plant response rating, Barnyardgrass (barnyardgrass [5]; [9]): 60
- Oat, Wild plant response rating (wild oat; 125 g ai/ha): 10
- Oat, Wild plant response rating (wild oat; 500 g ai/ha): 30
- Plant response rating, Surinam Grass (Surinam grass; [13]): 70
- Surinam Grass plant response rating (Surinam grass; [10]): 0
- Surinam Grass plant response rating (Surinam grass; [15]): 40
- Plant response rating, Surinam Grass (Surinam grass; [9]): 50
- Plant response rating, Morningglory (morningglory; [13]): 70
- Morningglory plant response rating (morningglory; [10]): 0
- Morningglory plant response rating (morningglory; [15]): 0
- Plant response rating, Morningglory (morningglory; [9]): 60
